Reference: patent US9908886B2 (Agency for Science, Technology and Research, priority 2012, dated 2018)
Like-named read-outs stand apart in the source and are kept apart here.

What was measured:
MNK1 = MNK1 (Homo sapiens, UniProt Q9BUB5); experiment: In vitro MNK kinase assay (Caliper LabChip mobility shift); format: biochemical
MNK2 = MNK2 (Homo sapiens (Human), UniProt Q9HBH9); experiment: as above; format: biochemical
[1] = enzymatic, 1.2 mM ATP, read-out: IC50 Mnk1
[2] = enzymatic, 250 μM ATP, read-out: IC50 Mnk2

Sequence of MNK2 (Q9HBH9 84-388): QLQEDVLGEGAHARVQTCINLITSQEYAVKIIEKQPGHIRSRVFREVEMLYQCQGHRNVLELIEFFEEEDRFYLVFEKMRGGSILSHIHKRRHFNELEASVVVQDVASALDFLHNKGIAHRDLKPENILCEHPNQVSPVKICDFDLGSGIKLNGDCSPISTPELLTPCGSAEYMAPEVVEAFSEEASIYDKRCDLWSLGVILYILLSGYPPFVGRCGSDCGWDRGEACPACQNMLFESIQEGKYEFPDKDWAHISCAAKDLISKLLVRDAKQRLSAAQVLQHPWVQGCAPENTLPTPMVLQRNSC

IC50 (MNK1; [1]) [nM] | IC50 (MNK2; [2]) [nM] | Compound | IC50 (MNK1) [nM] | IC50 (MNK2) [nM]
< 100 | < 100 | CN1CCN(C(=O)c2ccc(-c3ccc4ncc(-c5ccc(C#N)cc5)n4c3)cc2Cl)CC1 [Example 141, 4-(6-(3-chloro-4-(4-methylpiperazine-1-carbonyl)phenyl)imidazo[1,2-a]pyridin-3-yl)benzonitrile] |  | 
< 1000 | < 100 | CN1CCN(C(=O)c2ccc(-c3ccc4ncc(-c5ccc(C#N)cc5)n4c3)cc2F)CC1 [Example 142, 4-(6-(3-fluoro-4-(4-methylpiperazine-1-carbonyl)phenyl)imidazo[1,2-a]pyridin-3-yl)benzonitrile] |  | 
< 100 | < 1000 | CN1CCN(C(=O)c2ccc(-c3ccc4ncc(-c5ccc(C#N)cc5)n4c3)cc2C(F)(F)F)CC1 [Example 145, 4-(6-(4-(4-methylpiperazine-1-carbonyl)-3-(trifluoromethyl)phenyl)imidazo[1,2-a]pyridin-3-yl)benzonitrile] |  | 
< 100 | < 100 | CN1CCN(C(=O)c2ccc(-c3ccc4ncc(-c5ccc(C#N)cc5)n4c3)cc2N)CC1 [Example 146, 4-(6-(3-amino-4-(4-methylpiperazine-1-carbonyl)phenyl)imidazo[1,2-a]pyridin-3-yl)benzonitrile] |  | 
< 100 | < 100 | CN1CCN(C(=O)c2ccc(-c3ccc4ncc(-c5ccc(C#N)cc5)n4c3)cc2N(C)C)CC1 [Example 147, 4-(6-(3-(dimethylamino)-4-(4-methylpiperazine-1-carbonyl)phenyl)imidazo[1,2-a]pyridin-3-yl)benzonitrile] |  | 
< 1000 | < 1000 | CC(=O)Nc1cc(-c2ccc3ncc(-c4ccc(C#N)cc4)n3c2)ccc1C(=O)N1CCN(C)CC1 [Example 149, N-(5-(3-(4-cyanophenyl)imidazo[1,2-a]pyridin-6-yl)-2-(4-methylpiperazine-1-carbonyl)phenyl)acetamide] |  | 
< 100 | < 100 | CNc1cc(-c2ccc3ncc(-c4ccc(C#N)cc4)n3c2)ccc1C(=O)N1CCN(C)CC1 [Example 150, 4-(6-(3-(methylamino)-4-(4-methylpiperazine-1-carbonyl)phenyl)imidazo[1,2-a]pyridin-3-yl)benzonitrile] |  | 
< 1000 | < 100 | CNc1cc(-c2ccc3ncc(-c4ccc(C#N)cc4)n3c2)ccc1C(=O)N1CCOCC1 [Example 151, 4-(6-(3-(methylamino)-4-(morpholine-4-carbonyl)phenyl)imidazo[1,2-a]pyridin-3-yl)benzonitrile] |  | 
< 1000 | < 1000 | CN1CCN(C(=O)c2ccc(-c3ccc4ncc(-c5ccc(C#N)cc5)n4c3)c(Cl)c2)CC1 [Example 153] |  | 
< 1000 | < 1000 | Cc1cc(-c2ccc3ncc(-c4ccc(C#N)cc4)n3c2)ccc1C(=O)N1CCOCC1 [Example 156] |  | 
< 1000 | < 1000 | CN1CCN(C(=O)c2ccc(-c3ccc4ncc(-c5ccc(C#N)cc5)n4c3)cc2OC(F)(F)F)CC1 [Example 157] |  | 
< 1000 | < 100 | COc1cc(-c2ccc3ncc(-c4ccc(C#N)cc4)n3c2)ccc1C(=O)N1CCOCC1 [Example 158] |  | 
< 1000 | < 1000 | N#Cc1ccc(-c2cnc3ccc(-c4ccc(C(=O)N5CCOCC5)c(F)c4)cn23)cc1 [Example 162, 4-(6-(3-fluoro-4-(morpholine-4-carbonyl)phenyl)imidazo[1,2-a]pyridin-3-yl)benzonitrile] |  | 
< 100 | < 100 | CC1(N2CCOCC2)CCN(C(=O)c2ccc(-c3ccc4ncc(-c5ccc(C#N)cc5)n4c3)cc2)CC1 [Example 163, 4-(6-(4-(4-methyl-4-morpholinopiperidine-1-carbonyl)phenyl)imidazo[1,2-a]pyridin-3-yl)benzonitrile] |  | 
< 100 | < 100 | CN1CCN(C2(C)CCN(C(=O)c3ccc(-c4ccc5ncc(-c6ccc(C#N)cc6)n5c4)cc3)CC2)CC1 [Example 164, 4-(6-(4-(4-methyl-4-(4-methylpiperazin-1-yl)piperidine-1-carbonyl)phenyl)imidazo[1,2-a]pyridin-3-0)benzonitrile] |  | 
< 100 | < 100 | N#Cc1ccc(-c2cnc3ccc(-c4ccc(C(=O)N5CCNCC5)cc4)cn23)cc1 [Example 165, 4-(6-(4-(piperazine-1-carbonyl)phenyl)imidazo[1,2-a]pyridin-3-yl)benzonitrile] |  | 
< 100 | < 100 | N#Cc1ccc(-c2cnc3ccc(-c4ccc(C(=O)N5CCOCC5)c(O)c4)cn23)cc1 [Example 167, 4-(6-(3-hydroxy-4-(morpholine-4-carbonyl)phenyl)imidazo[1,2-a]pyridin-3-yl)benzonitrile] |  | 
 |  | CNC1CCN(C(=O)c2ccc(-c3ccc4ncc(-c5ccc(C#N)cc5)n4c3)cc2NC(C)=O)CC1 [Example 169, N-(5-(3-(4-cyanophenyl)imidazo[1,2-a]pyridin-6-yl)-2-(4-(methylamino)piperidine-1-carbonyl)phenyl)acetamide] | < 100 | < 100
< 100 | < 100 | NC1CCN(C(=O)c2ccc(-c3ccc4ncc(-c5ccc(Cl)cc5)n4c3)cc2)CC1 [Example 174, (4-aminopiperidin-1-yl)(4-(3-(4-chlorophenyl)imidazo[1,2-a]pyridin-6-yl)phenyl)methanone] |  | 
< 100 | < 100 | CN1CCN(C2CCN(C(=O)c3ccc(-c4ccn5ncc(-c6ccc(C#N)cc6)c5n4)cc3)CC2)CC1 [Example 179, 4-(5-(4-(4-(4-methylpiperazin-1-yl)piperidine-1-carbonyl)phenyl)pyrazolo[1,5-a]pyrimidin-3-yl)benzonitrile] |  | 
< 100 | < 100 | N#Cc1ccc(-c2cnn3ccc(-c4ccc(C(=O)N5CCCOCC5)cc4)nc23)cc1 [Example 181, 4-(5-(4-(1,4-oxazepane-4-carbonyl)phenyl)pyrazolo[1,5-a]pyrimidin-3-yl)benzonitrile] |  | 
< 100 | < 100 | N#Cc1ccc(-c2cnn3ccc(-c4ccc(C(=O)N5CCNCC5)cc4)nc23)cc1 [Example 183, 4-(5-(4-(piperazine-1-carbonyl)phenyl)pyrazolo[1,5-a]pyrimidin-3-yl)benzonitrile] |  | 
< 100 | < 100 | N#Cc1ccc(-c2cnn3ccc(-c4ccc(C(=O)N5CCOCC5)cc4)nc23)cc1 [Example 185, 4-(5-(4-(morpholine-4-carbonyl)phenyl)pyrazolo[1,5-a]pyrimidin-3-yl)benzonitrile] |  | 
< 100 | < 100 | CC(=O)NC1CCN(C(=O)c2ccc(-c3ccn4ncc(-c5ccc(C#N)cc5)c4n3)cc2)CC1 [Example 186, N-(1-(4-(3-(4-cyanophenyl)pyrazolo[1,5-a]pyrimidin-5-yl)benzoyl)piperidin-4-yl)acetamide] |  | 
< 100 | < 100 | N#Cc1ccc(-c2cnn3ccc(-c4ccc(C(=O)N5CCOCC5)c(O)c4)nc23)cc1 [Example 187, 4-(5-(3-hydroxy-4-(morpholine-4-carbonyl)phenyl)pyrazolo[1,5-a]pyrimidin-3-yl)benzonitrile] |  | 
 |  | N#Cc1ccc(-n2cnc3ccc(-c4ccc(C(=O)N5CCOCC5)cc4)cc32)cc1 [Example 190, 4-(6-(4-(morpholine-4-carbonyl)phenyl)-1H-benzo[d]imidazol-1-yl)benzonitrile] | < 1000 | < 1000

Compound | IC50 (MNK1; [1]) [nM] | IC50 (MNK2; [2]) [nM] | IC50 (MNK1) [nM] | IC50 (MNK2) [nM]
N#Cc1ccc(-c2cnc3ccc(-c4ccc(C(=O)N5CCNCC5)c(O)c4)cn23)cc1 [Example 159, 4-(6-(3-hydroxy-4-(piperazine-1-carbonyl)phenyl)imidazo[1,2-a]pyridin-3-yl)benzonitrile] | < 100 | < 100 |  | 
N#Cc1ccc(-c2cnc3ccc(-c4ccc(C(=O)N5CCOCC5)c(N5CCOCC5)c4)cn23)cc1 [Example 160, 4-(6-[3-(morpholin-4-yl)-4-(morpholin-4-ylcarbonyl)phenyl]imidazo[1,2-a]pyridin-3-yl)benzonitrile] | < 100 | < 100 |  | 
CC(=O)Nc1cc(-c2ccc3ncc(-c4ccc(C#N)cc4)n3c2)ccc1C(=O)N1CCOCC1 [Example 166, N-(5-(3-(4-cyanophenyl)imidazo[1,2-a]pyridin-6-yl)-2-(morpholine-4-carbonyl)phenyl)acetamide] | < 100 | < 100 |  | 
CC(=O)Nc1cc(-c2ccc3ncc(-c4ccc(C#N)cc4)n3c2)ccc1C(=O)N1CCNCC1 [Example 170, N-(5-(3-(4-cyanophenyl)imidazo[1,2-a]pyridin-6-yl)-2-(piperazine-1-carbonyl)phenyl)acetamide] | < 100 | < 100 |  | 
COC1(C)CCN(C(=O)c2ccc(-c3ccc4ncc(-c5ccc(C#N)cc5)n4c3)cc2)CC1 [Example 172, 4-(6-(4-(4-methoxy-4-methylpiperidine-1-carbonyl)phenyl)imidazo[1,2-a]pyridin-3-yl)benzonitrile] | < 100 | < 100 |  | 
CC1(N)CCN(C(=O)c2ccc(-c3ccc4ncc(-c5ccc(Cl)cc5)n4c3)cc2)CC1 [Example 173, (4-amino-4-methylpiperidin-1-yl)(4-(3-(4-chlorophenyl)imidazo[1,2-a]pyridin-6-yl)phenyl)methanone] | < 100 | < 100 |  | 
CC(=O)N1CCN(C(=O)c2ccc(-c3ccn4ncc(-c5ccc(C#N)cc5)c4n3)cc2)CC1 [Example 184] | < 100 | < 100 |  | 
